Results as given in patent publication US20260097133A1, “EPIGENETIC EDITING TOOL FOR TARGETING HEPATITIS B VIRUS GENE” (priority 2023, published 2026).

Legend:
Type in all cases: cell-based
Details in all cases: sgRNA in GFP-negative cell population, day 14 after transfection of EPIREG
[1] = test system: type D HBV surface antigen (HBsAg) reporter cell line; test: sgRNA lentiviral library screening, HBsAg reporter cell line (NGS reads in GFP-negative cells)
From the text: (§1) In this example, the type D HBV X protein (HBx), core antigen (HBcAg), and surface antigen (HBsAg) reporter cell lines were used for library screening. First, a sgRNA cell library of type D HBV gene was constructed using a reporter cell line according to the method described in example 1. The sgRNA library was packaged into lentivirus to obtain a sgRNA lentiviral library (carrying red fluorescence), the reporter cell line was infected with the lentiviral library, and the red fluorescence was sorted to obtain the sgRNA cell library. Each cell in this sorted cell library integrated a single sgRNA in the library while the cell itself carried a reporter sequence (carrying green fluorescence). The EPIREG tool described in example 2 (the amino acid sequence of the tool was SEQ ID NO: 1194) (carrying blue fluorescence) was transfected and delivered into a cell library carrying both sgRNA and reporter sequences. Red/green/blue fluorescent triple-positive cells were sorted using a flow cytometer and cultured long-term. The EPIREG transfected into the cells could work together with the sgRNA to silence GFP in the reporter. On the day 14 after transfection, the GFP-negative cell population in the cell library was sorted, the genomic DNA of the negative cell population was extracted for NGS sequencing. The sgRNAs with higher sequencing reads in the negative cell population were compared using the untreated cell library as a control reference, so as to obtain the candidate sgRNAs that could play an editing role corresponding to each reporter, respectively (the schematic diagram of this screening scheme is shown in FIG. 6, and the analysis method is referenced to the literature DOI: 10.1186/s13059-014-0554-4). The functionally validated sgRNAs for each reporter cell line are summarized in the following table (arranged by the starting position of the target sequence of each sgRNA).

[2] = test system: type D HBV core antigen (HBcAg) reporter cell line; test: sgRNA lentiviral library screening, HBcAg reporter cell line (NGS reads in GFP-negative cells)
From the text: as §1

[3] = test system: type D HBV X protein (HBx) reporter cell line; test: sgRNA lentiviral library screening, HBx reporter cell line (NGS reads in GFP-negative cells)
From the text: as §1

Substance: 62 (guide AATGTCAACGACCGACCTTG; listed as DNA, chemistry not fully specified) [compound 62]
- Log2 FC [1]: 1.5364
- Log2 FC [2]: 2.2035

Substance: 88 (guide ACATCGTATCCATGGCTGCT; listed as DNA, chemistry not fully specified) [compound 88]
- Log2 FC [1]: 1.2095
- Log2 FC [3]: 3.4448
- Log2 FC [2]: 3.4446

Substance: 127 (guide ACTGGCTGGGGCTTGGTCAT; listed as DNA, chemistry not fully specified) [compound 127]
- Log2 FC [1]: 1.3983
- Log2 FC [3]: 7.231
- Log2 FC [2]: 2.0792

Substance: 145 (guide AGACTGGGAGGAGTTGGGGG; listed as DNA, chemistry not fully specified) [compound 145]
- Log2 FC [1]: 1.8314
- Log2 FC [2]: 3.5473

Substance: 150 (guide AGAGAGGTGCGCCCCGTGGT; listed as DNA, chemistry not fully specified) [compound 150]
- Log2 FC [1]: 1.453
- Log2 FC [3]: 3.8671

Substance: 161 (guide AGATTAAAGGTCTTTGTACT; listed as DNA, chemistry not fully specified) [compound 161]
- Log2 FC [1]: 1.8238
- Log2 FC [2]: 2.5156

Substance: 211 (guide AGTCCCAAGCGACCCCGAGA; listed as DNA, chemistry not fully specified) [compound 211]
- Log2 FC [1]: 1.5263
- Log2 FC [3]: 4.6655
- Log2 FC [2]: 4.4175

Substance: 215 (guide AGTCTTTGAAGTATGCCTCA; listed as DNA, chemistry not fully specified) [compound 215]
- Log2 FC [1]: 1.3799
- Log2 FC [2]: 2.1589

Substance: 227 (guide ATAGAGTATTTGGTGTCTTT; listed as DNA, chemistry not fully specified) [compound 227]
- Log2 FC [1]: 0.9275

Substance: 242 (guide ATCCTGCGGACGACCCTTCT; listed as DNA, chemistry not fully specified) [compound 242]
- Log2 FC [1]: 0.8809

Substance: 270 (guide ATTTGCTGTGTTTGCTCTGA; listed as DNA, chemistry not fully specified) [compound 270]
- Log2 FC [1]: 1.397

Substance: 410 (guide CCCGTTGCCCGGCAACGGCC; listed as DNA, chemistry not fully specified) [compound 410]
- Log2 FC [1]: 1.9735

Substance: 467 (guide CGACCCTTCTCGGGGTCGCT; listed as DNA, chemistry not fully specified) [compound 467]
- Log2 FC [1]: 1.8988
- Log2 FC [3]: 2.9245
- Log2 FC [2]: 2.0481

Substance: 483 (guide CGCCCCGTGGTCGGTCGGAA; listed as DNA, chemistry not fully specified) [compound 483]
- Log2 FC [1]: 2.4519
- Log2 FC [3]: 6.4685
- Log2 FC [2]: 4.8386

Substance: 491 (guide CGGAACGGCAGACGGAGAAG; listed as DNA, chemistry not fully specified) [compound 491]
- Log2 FC [1]: 2.6046
- Log2 FC [3]: 6.0674
- Log2 FC [2]: 4.5168

Substance: 506 (guide CGTCCCGCGCAGGATCCAGT; listed as DNA, chemistry not fully specified) [compound 506]
- Log2 FC [1]: 1.5863
- Log2 FC [3]: 5.3827
- Log2 FC [2]: 3.3238

Substance: 593 (guide GAATCCCAGAGGATTGCTGG; listed as DNA, chemistry not fully specified) [compound 593]
- Log2 FC [1]: 0.9124

Substance: 598 (guide GACATGAACAAGAGATGATT; listed as DNA, chemistry not fully specified) [compound 598]
- Log2 FC [1]: 1.4722
- Log2 FC [2]: 4.6761

Substance: 601 (guide GACCAAGCCCCAGCCAGTGG; listed as DNA, chemistry not fully specified) [compound 601]
- Log2 FC [1]: 1.3073
- Log2 FC [3]: 7.1876
- Log2 FC [2]: 4.6508

Substance: 641 (guide GATCGGCAGAGGAGCCGAAA; listed as DNA, chemistry not fully specified) [compound 641]
- Log2 FC [1]: 1.58
- Log2 FC [3]: 7.351
- Log2 FC [2]: 5.5293

Substance: 658 (guide GCAAATATACATCGTATCCA; listed as DNA, chemistry not fully specified) [compound 658]
- Log2 FC [1]: 1.8084
- Log2 FC [3]: 4.7952
- Log2 FC [2]: 2.2171

Substance: 668 (guide GCAGAGGTGAAAAAGTTGCA; listed as DNA, chemistry not fully specified) [compound 668]
- Log2 FC [1]: 1.297
- Log2 FC [2]: 1.9744

Substance: 669 (guide GCAGATGAGAAGGCACAGAC; listed as DNA, chemistry not fully specified) [compound 669]
- Log2 FC [1]: 1.1259
- Log2 FC [3]: 4.1676
- Log2 FC [2]: 3.0945

Substance: 671 (guide GCAGCACAGCCTAGCAGCCA; listed as DNA, chemistry not fully specified) [compound 671]
- Log2 FC [1]: 1.2918

Substance: 774 (guide GGGGCGCACCTCTCTTTACG; listed as DNA, chemistry not fully specified) [compound 774]
- Log2 FC [1]: 1.1527
- Log2 FC [3]: 3.0494

Substance: 792 (guide GGTCTGGAGCAAACATTATC; listed as DNA, chemistry not fully specified) [compound 792]
- Log2 FC [1]: 1.5074
- Log2 FC [3]: 5.6925
- Log2 FC [2]: 2.103

Substance: 810 (guide GTAAAGAGAGGTGCGCCCCG; listed as DNA, chemistry not fully specified) [compound 810]
- Log2 FC [1]: 1.7059
- Log2 FC [3]: 5.1825
- Log2 FC [2]: 2.5258

Substance: 825 (guide GTCCCAAGCGACCCCGAGAA; listed as DNA, chemistry not fully specified) [compound 825]
- Log2 FC [1]: 1.0352
- Log2 FC [3]: 5.2457
- Log2 FC [2]: 3.3064

Substance: 829 (guide GTCCTCTTATGTAAGACCTT; listed as DNA, chemistry not fully specified) [compound 829]
- Log2 FC [1]: 0.9029

Substance: 834 (guide GTCGGAACGGCAGACGGAGA; listed as DNA, chemistry not fully specified) [compound 834]
- Log2 FC [1]: 1.2666
- Log2 FC [3]: 4.7704
- Log2 FC [2]: 2.7177

Substance: 839 (guide GTCTTACATAAGAGGACTCT; listed as DNA, chemistry not fully specified) [compound 839]
- Log2 FC [1]: 1.3376

Substance: 973 (guide TCGGAACGGCAGACGGAGAA; listed as DNA, chemistry not fully specified) [compound 973]
- Log2 FC [1]: 1.056
- Log2 FC [3]: 6.3619
- Log2 FC [2]: 3.9552

Substance: 985 (guide TCTGCCGTTCCGACCGACCA; listed as DNA, chemistry not fully specified) [compound 985]
- Log2 FC [1]: 1.8695
- Log2 FC [3]: 6.0276
- Log2 FC [2]: 3.1824

Substance: 998 (guide TCTTTGTACTAGGAGGCTGT; listed as DNA, chemistry not fully specified) [compound 998]
- Log2 FC [1]: 2.1989
- Log2 FC [2]: 4.2906

Substance: 1025 (guide TGCCCAAGGTCTTACATAAG; listed as DNA, chemistry not fully specified) [compound 1025]
- Log2 FC [1]: 1.4524
- Log2 FC [2]: 2.0852

Substance: 1028 (guide TGCCGTTCCGACCGACCACG; listed as DNA, chemistry not fully specified) [compound 1028]
- Log2 FC [1]: 0.8922
- Log2 FC [2]: 3.8548

Substance: 1072 (guide TGTAGTATGCCCTGAGCCTG; listed as DNA, chemistry not fully specified) [compound 1072]
- Log2 FC [1]: 1.1325

Substance: 1084 (guide TTAAAGGTCTTTGTACTAGG; listed as DNA, chemistry not fully specified) [compound 1084]
- Log2 FC [1]: 1.0831
